Data taken from patent US11724078B2, “Methods and systems for trans-tissue substance delivery using plasmaporation” (GOJO INDUSTRIES, INC., priority 2016, dated 2023).

Assay: Transport of substance applied to plasma treated area through open pores in the SC
Conditions: applied more than 5 minutes after plasma treatment

passage through the SC when applied after 5 minutes: no longer passed through the SC
Substance: Dextran [10 kDa Dextran]
